Patent publication US8946298B2, “Plant disease controlling composition and method for controlling plant disease” (Sumitomo Chemical Company, Limited, priority 2010, dated 2015)

System: gray mold fungus (Botrytis cinerea)
Test: cucumber leaf disk test, preventive value against gray mold
Assay type: in vivo
Details: 15° C., four days
Method: True leaf of cucumber is punched out with cork borer to 13 mm in diameter to prepare a leaf disk. In 24 well microwell plate that is dispensed with 1 ml 0.8% water agar, the leaf disk is placed such that the upper side of the leaf is in an upward direction. Thereto is added 20 micro liter a testing solution prepared by mixing a dimethyl sulfoxide solution of the present compound (racemate) and a dimethyl sulfoxide solution of iminoctadine trialbesilate to a predetermined concentration to treat the leaf disk.
After confirming that the testing medical solution is dried, conidium of gray mold fungus (Botrytis cinerea) is suspended into potato dextrose broth (DIFCO) in a density of about 10^5 conidium/mL and is then subjected to a spray inoculation. After leaving to stand the leaf disk in a growth chamber set up at 15° C. for four days, an onset area on the leaf is measured and then calculated an onset area rate (hereinafter, referred to as an onset area rate of treated group).
The same operation is carried out with 20 micro liter water instead of 20 micro liter a testing medicine solution to calculate an onset area rate (hereinafter, referred to an onset area rate of non-treated group).
A preventive value is calculated from the above onset area rate of treated group and the onset area rate of non-treated group by the following equation: Preventive value (%)=100×(A−B)/A
A: an onset area rate of treated group
B: an onset area rate of non-treated group
The same operations as described in Test Example 1 are carried out with iminoctadine triacetate instead of iminoctadine trialbesilate, so as to calculate a preventive value.
Also for comparison, the same operations as described in Test Example 1 are carried out with the exception that the testing medicine solution is substituted with a predetermined concentration of each dimethyl sulfoxide solution of the present compound (racemate) or iminoctadine triacetate, so as to calculate respective preventive values.
For comparison, the same operations as described in Test Example 1 are carried out with the exception that the testing medicine solution is substituted with a predetermined concentration of a dimethyl sulfoxide solution of iminoctadine triacetate, so as to calculate a preventive value.

CC(=O)O.CC(=O)O.CC(=O)O.NC(N)=NCCCCCCCCNCCCCCCCCN=C(N)N [iminoctadine triacetate]
preventive value (%) (Table 2, iminoctadine triacetate alone 0.5 ppm): 20%
preventive value (%) (Table 2, iminoctadine triacetate alone 5.0 ppm): 53%
preventive value (%) (Table 3 (Reference Example), iminoctadine triacetate alone 0.5 ppm): 20%
preventive value (%) (Table 3 (Reference Example), iminoctadine triacetate alone 5.0 ppm): 56%
